Structures are written as SMILES.

The text below walks through data of patent US8586755B2, “Substituted nicotinamides as KCNQ2/3 modulators” (Grünenthal GmbH, priority 2009, dated 2013).

This assay addresses T1, KCNQ2/3 channels (Homo sapiens, UniProt O43525+O43526).
T1 construct: expressed in transfected cells
The experiment in a line: Fluorescence assay using a voltage sensitive dye (fluorimetry). The class given is cell-based. Particulars: CHO-K1 cells expressing KCNQ2/3 channels; for EC50: agonistic activity; for Emax: read-out: Fluorimetry % efficacy (retigabine 50 μM = 100%). An outline of the steps:
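Agonist EC50s come from the F2 vs F1 fluorescence comparison, F2 taken at the peak after KCl depolarisation (92 mM final) and F1 after 30 min compound exposure at room temperature. Assay uses KCNQ2/3-expressing CHO-K1 cells stained 45 min with a red voltage-sensitive dye in pH 7.4 ES buffer.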

Molecule `CC(C)(C)CCNC(=O)c1cccnc1SC1CCCC1Cc1ccccc1` (stereo not drawn) [compound 155, 2-[(2-Benzyl-cyclopentyl)sulfanyl]-N-(3,3-dimethyl-butyl)-pyridine-3-carboxylic acid amide] came in with a half-maximal effective concentration (EC50) of 657 nM. The Emax (retigabine 50 μM = 100%) stood at 159%.
`O=C(NCC1C2CCC1CC2)c1cccnc1SCCCc1cccc(C(F)(F)F)c1` (stereo not drawn) [compound 156, N-(7-Bicyclo[2.2.1]heptanyl-methyl)-2-[3-[3-(trifluoromethyl)phenyl]-propylsulfanyl]-pyridine-3-carboxylic acid amide]: a half-maximal effect (EC50) was put at 110 nM. Moreover, where the note is “retigabine 50 μM = 100%”, the Emax was 249%.
Consider `O=C(NCCCn1cncn1)c1cccnc1SCCCc1ccc(F)cc1` [compound 157, 2-[3-(4-Fluorophenyl)-propylsulfanyl]-N-[3-(1H-[1,2,4]triazol-1-yl)-propyl]-pyridine-3-carboxylic acid amide], for which the Emax (retigabine 50 μM = 100%) was 88%.
Same read-out and setting: next, `O=C(NCc1nnco1)c1cccnc1SCCCc1ccc(F)cc1` [compound 158, 2-[3-(4-Fluorophenyl)-propylsulfanyl]-N-([1,3,4]oxadiazol-2-yl-methyl)-pyridine-3-carboxylic acid amide]: 30%.
The molecule `O=C(NCc1cccc(-c2ccncc2)c1)c1cccnc1SCCCc1ccc(F)cc1` [compound 159, 2-[3-(4-Fluorophenyl)-propylsulfanyl]-N-[(3-pyridin-4-yl-phenyl)-methyl]-pyridine-3-carboxylic acid amide] came in with an EC50 of 670 nM. Also, the Emax (retigabine 50 μM = 100%) stood at 113%.
The corresponding values for `O=C(NCc1ccc2c(c1)N(CC1CC1)CCO2)c1cccnc1SCCCc1ccc(F)cc1` [compound 160, N-[[4-(Cyclopropyl-methyl)-3,4-dihydro-2H-[1,4]benzoxazin-6-yl]-methyl]-2-[3-(4-fluorophenyl)-propylsulfanyl]-pyridine-3-carboxylic acid amide] are 228 nM and 74%.
The matching figures for `CCN1CCOc2ccc(CNC(=O)c3cccnc3SCCCc3ccc(F)cc3)cc21` [compound 161, N-[(4-Ethyl-3,4-dihydro-2H-[1,4]benzoxazin-6-yl)-methyl]-2-[3-(4-fluorophenyl)-propylsulfanyl]-pyridine-3-carboxylic acid amide]: 145 nM and 67%.
As for `CN1CCOc2ccc(CNC(=O)c3cccnc3SCCCc3ccc(F)cc3)cc21` [compound 162, 2-[3-(4-Fluorophenyl)-propylsulfanyl]-N-[(4-methyl-3,4-dihydro-2H-[1,4]benzoxazin-6-yl)-methyl]-pyridine-3-carboxylic acid amide], a half-maximal response (EC50) required 166 nM. The Emax (retigabine 50 μM = 100%) was found to be 83%.
The molecule `CC(C)(CCNC(=O)c1cccnc1SCCCc1ccc(F)cc1)c1ccccc1` [compound 163, 2-[3-(4-Fluorophenyl)-propylsulfanyl]-N-(3-methyl-3-phenyl-butyl)-pyridine-3-carboxylic acid amide] yielded an EC50 of 537 nM. Besides, the Emax (retigabine 50 μM = 100%) was found to be 89%.
For `O=C(NCc1ccc(F)cc1)c1cccnc1SCCC(F)(F)c1cccc(C(F)(F)F)c1` [compound 165, 2-[[3,3-Difluoro-3-[3-(trifluoromethyl)phenyl]-propyl]sulfanyl]-N-[(4-fluorophenyl)-methyl]-pyridine-3-carboxylic acid amide], the 50% effective concentration (EC50) stood at 30 nM. Moreover, the Emax (retigabine 50 μM = 100%) is 119%.
The matching figures for `CC(C)(C)CCNC(=O)c1cccnc1SCCC(F)(F)c1cccc(C(F)(F)F)c1` [compound 166, 2-[[3,3-Difluoro-3-[3-(trifluoromethyl)phenyl]-propyl]sulfanyl]-N-(3,3-dimethyl-butyl)-pyridine-3-carboxylic acid amide]: 46 nM and 206%.
`CC(C)(C)CCNC(=O)c1cccnc1SCC(=O)Cc1ccccc1` [compound 167] displayed an EC50 of 2710 nM. Moreover, the “Fluorimetry % efficacy (retigabine 50 μM = 100%)” value (retigabine 50 μM = 100%) was found to be 77%.
`O=C(NCc1cccc(F)c1)c1cccnc1SCCC(F)(F)c1ccc(F)cc1` [compound 168, 2-[[3,3-Difluoro-3-(4-fluorophenyl)-propyl]sulfanyl]-N-[(3-fluorophenyl)-methyl]-pyridine-3-carboxylic acid amide] gave an EC50 of 17 nM. The Emax (retigabine 50 μM = 100%) worked out at 110%.
`COCCNC(=O)c1cccnc1SCCC(F)(F)c1ccc(F)cc1` [compound 171, 2-[[3,3-Difluoro-3-(4-fluorophenyl)-propyl]sulfanyl]-N-(2-methoxy-ethyl)-pyridine-3-carboxylic acid amide] showed a 50% effective concentration (EC50) of 432 nM. In addition, for the setting “retigabine 50 μM = 100%”, the Emax is 181%.
The corresponding values for `COCCNC(=O)c1cccnc1SCCCc1ccc(F)cc1` [compound 172, 2-[3-(4-Fluorophenyl)-propylsulfanyl]-N-(2-methoxy-ethyl)-pyridine-3-carboxylic acid amide] are 1050 nM and 196%.
Take `O=C(NCc1ccc(F)cc1O)c1cccnc1SCCCc1ccc(F)cc1` [compound 173, N-[(4-Fluoro-2-hydroxy-phenyl)-methyl]-2-[3-(4-fluorophenyl)-propylsulfanyl]-pyridine-3-carboxylic acid amide]: the midpoint of the response, the EC50, lay at 156 nM. For the same molecule, the Emax (retigabine 50 μM = 100%) was 185%.
The matching figures for `O=C(NCc1ccco1)c1cccnc1SCCCc1ccc(F)cc1` [compound 174, 2-[3-(4-Fluorophenyl)-propylsulfanyl]-N-(furan-2-yl-methyl)-pyridine-3-carboxylic acid amide]: 134 nM and 213%.
`Cc1ccc(CNC(=O)c2cccnc2SCCCc2ccc(F)cc2)o1` [compound 175, 2-[3-(4-Fluorophenyl)-propylsulfanyl]-N-[(5-methyl-furan-2-yl)-methyl]-pyridine-3-carboxylic acid amide] came in with a concentration for a half-maximal effect (EC50) of 126 nM. Moreover, under “retigabine 50 μM = 100%”, the Emax was 173%.
The matching figures for `CC(CCc1ccc(F)cc1)Sc1ncccc1C(=O)NCc1ccc(F)cc1` (stereo not drawn) [compound 176, N-[(4-Fluorophenyl)-methyl]-2-[[3-(4-fluorophenyl)-1-methyl-propyl]sulfanyl]-pyridine-3-carboxylic acid amide]: 40 nM and 108%.
The matching figures for `CC(C)CCNC(=O)c1cccnc1SC(C)CCc1ccc(F)cc1` (stereo not drawn) [compound 177, 2-[[3-(4-Fluorophenyl)-1-methyl-propyl]sulfanyl]-N-(3-methyl-butyl)-pyridine-3-carboxylic acid amide]: 76 nM and 192%.
Molecule `CC(CCc1ccc(F)cc1)Sc1ncccc1C(=O)NCC1C2CCC1CC2` (stereo not drawn) [compound 178, N-(7-Bicyclo[2.2.1]heptanyl-methyl)-2-[[3-(4-fluorophenyl)-1-methyl-propyl]sulfanyl]-pyridine-3-carboxylic acid amide] registered an EC50 of 96 nM. Also, the Emax (retigabine 50 μM = 100%) turned out to be 270%.
The corresponding values for `O=C(NCC1CCCO1)c1cccnc1SCCC(F)(F)c1ccc(F)cc1` (stereo not drawn) [compound 179, 2-[[3,3-Difluoro-3-(4-fluorophenyl)-propyl]sulfanyl]-N-(tetrahydro-furan-2-yl-methyl)-pyridine-3-carboxylic acid amide] are 378 nM and 234%.
The corresponding values for `O=C(NCC1CCCO1)c1cccnc1SCCCc1ccc(F)cc1` (stereo not drawn) [compound 181, 2-[3-(4-Fluorophenyl)-propylsulfanyl]-N-(tetrahydro-furan-2-yl-methyl)-pyridine-3-carboxylic acid amide] are 1550 nM and 254%.
`COC(CNC(=O)c1cccnc1SCCCc1ccc(F)cc1)C(C)(C)C` (stereo not drawn) [compound 182, 2-[3-(4-Fluorophenyl)-propylsulfanyl]-N-(2-methoxy-3,3-dimethyl-butyl)-pyridine-3-carboxylic acid amide] gave a half-maximal effective concentration (EC50) of 366 nM. Further, the Emax (retigabine 50 μM = 100%) worked out at 110%.
The corresponding values for `Cc1cccc(CNC(=O)c2cccnc2SCCC(F)(F)c2ccc(F)cc2)c1` [compound 183, 2-[[3,3-Difluoro-3-(4-fluorophenyl)-propyl]sulfanyl]-N-(m-tolyl-methyl)-pyridine-3-carboxylic acid amide] are 43 nM and 109%.
`Cc1cc(C)cc(CNC(=O)c2cccnc2SCCC(F)(F)c2ccc(F)cc2)c1` [compound 184, 2-[[3,3-Difluoro-3-(4-fluorophenyl)-propyl]sulfanyl]-N-[(3,5-dimethyl-phenyl)-methyl]-pyridine-3-carboxylic acid amide]: the Emax (retigabine 50 μM = 100%) is 23%.
Consider `CCCNC(=O)c1cccnc1SCCC(F)(F)c1ccc(F)cc1` [compound 185, 2-[[3,3-Difluoro-3-(4-fluorophenyl)-propyl]sulfanyl]-N-propyl-pyridine-3-carboxylic acid amide], for which the EC50 is 167 nM. Besides, under “retigabine 50 μM = 100%”, the Emax came to 212%.
The matching figures for `CCCCCCNC(=O)c1cccnc1SCCC(F)(F)c1ccc(F)cc1` [compound 186, 2-[[3,3-Difluoro-3-(4-fluorophenyl)-propyl]sulfanyl]-N-hexyl-pyridine-3-carboxylic acid amide]: 236 nM and 191%.
With `O=C(NCC1CCOC1)c1cccnc1SCCC(F)(F)c1ccc(F)cc1` (stereo not drawn) [compound 187, 2-[[3,3-Difluoro-3-(4-fluorophenyl)-propyl]sulfanyl]-N-(tetrahydro-furan-3-yl-methyl)-pyridine-3-carboxylic acid amide], the EC50 was determined as 805 nM. For the same molecule, the Emax (retigabine 50 μM = 100%) amounted to 231%.
Consider `O=C(NCC1CCCOC1)c1cccnc1SCCC(F)(F)c1ccc(F)cc1` (stereo not drawn) [compound 188, 2-[[3,3-Difluoro-3-(4-fluorophenyl)-propyl]sulfanyl]-N-(tetrahydro-pyran-3-yl-methyl)-pyridine-3-carboxylic acid amide], for which the EC50 came out at 315 nM. Further, where the note is “retigabine 50 μM = 100%”, the Emax came to 210%.
